This is an account of results in PMC9212491 (Antiviral Research, 2022).

Structures are written as SMILES.

The test system of one data set is rSARS-CoV-2/Nluc. Nature of the data set: microbe, parasite or virus in culture. The format is cell-based, SARS-CoV-2. Particulars: for EC50: Severe acute respiratory syndrome coronavirus 2, Calu-3, read-out: EC50, SARS-CoV-2 infection, Calu-3 cells.
Another data set has as its system JAK2. The conditions noted are these: ref Stebbing et al.,2021; Klaeger et al.,2017; cited from earlier work.
A further data set concerns TYK2. The conditions noted are these: ref Stebbing et al.,2021; Klaeger et al.,2017; cited from earlier work.
The test system of another data set is EGFR. The conditions noted are these: ref Asquith et al., 2019a, 2019b; Davis et al.,2011; cited from earlier work.
Another data set relates to STK10. Particulars: ref Asquith et al., 2019a, 2019b; Davis et al.,2011; cited from earlier work.
The test system of another data set is YSK4. The conditions noted are these: ref Asquith et al., 2019a, 2019b; Davis et al.,2011; cited from earlier work.
Another data set concerns SLK. Particulars: ref Asquith et al., 2019a, 2019b; Davis et al.,2011; cited from earlier work.
In the next data set the target is AAK1 (Homo sapiens, UniProt Q2M2I8). The experiment in a line: In vitro binding, dissociation constant.
Sequence of AAK1 (Q2M2I8 whole entry): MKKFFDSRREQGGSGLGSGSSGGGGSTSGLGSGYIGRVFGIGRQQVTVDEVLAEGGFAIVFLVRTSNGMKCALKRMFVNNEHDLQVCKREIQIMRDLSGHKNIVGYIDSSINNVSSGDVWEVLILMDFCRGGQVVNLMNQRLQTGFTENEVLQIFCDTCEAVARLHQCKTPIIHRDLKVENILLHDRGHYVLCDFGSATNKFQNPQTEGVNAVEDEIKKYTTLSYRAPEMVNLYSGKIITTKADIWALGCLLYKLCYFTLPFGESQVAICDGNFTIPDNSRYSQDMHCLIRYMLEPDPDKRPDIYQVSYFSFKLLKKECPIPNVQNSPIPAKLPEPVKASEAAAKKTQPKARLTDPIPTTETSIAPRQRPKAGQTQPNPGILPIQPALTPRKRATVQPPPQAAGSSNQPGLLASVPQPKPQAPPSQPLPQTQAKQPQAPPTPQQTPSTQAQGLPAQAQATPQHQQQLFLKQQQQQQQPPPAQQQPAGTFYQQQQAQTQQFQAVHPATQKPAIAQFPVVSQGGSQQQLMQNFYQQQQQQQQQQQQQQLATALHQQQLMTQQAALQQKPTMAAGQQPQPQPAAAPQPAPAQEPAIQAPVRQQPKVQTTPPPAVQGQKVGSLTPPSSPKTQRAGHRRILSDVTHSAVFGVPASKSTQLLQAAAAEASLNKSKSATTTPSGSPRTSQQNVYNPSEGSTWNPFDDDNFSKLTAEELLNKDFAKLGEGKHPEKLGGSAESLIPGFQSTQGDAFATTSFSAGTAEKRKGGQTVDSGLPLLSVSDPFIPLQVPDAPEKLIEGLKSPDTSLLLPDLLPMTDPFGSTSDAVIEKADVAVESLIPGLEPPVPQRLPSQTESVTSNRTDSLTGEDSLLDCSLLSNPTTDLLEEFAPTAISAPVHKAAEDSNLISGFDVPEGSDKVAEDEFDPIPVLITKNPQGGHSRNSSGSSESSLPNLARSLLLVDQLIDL
For another data set, the target named is BIKE (Homo sapiens, UniProt Q9NSY1). The experiment in a line: In vitro binding, dissociation constant.
Sequence of BIKE (Q9NSY1 whole entry): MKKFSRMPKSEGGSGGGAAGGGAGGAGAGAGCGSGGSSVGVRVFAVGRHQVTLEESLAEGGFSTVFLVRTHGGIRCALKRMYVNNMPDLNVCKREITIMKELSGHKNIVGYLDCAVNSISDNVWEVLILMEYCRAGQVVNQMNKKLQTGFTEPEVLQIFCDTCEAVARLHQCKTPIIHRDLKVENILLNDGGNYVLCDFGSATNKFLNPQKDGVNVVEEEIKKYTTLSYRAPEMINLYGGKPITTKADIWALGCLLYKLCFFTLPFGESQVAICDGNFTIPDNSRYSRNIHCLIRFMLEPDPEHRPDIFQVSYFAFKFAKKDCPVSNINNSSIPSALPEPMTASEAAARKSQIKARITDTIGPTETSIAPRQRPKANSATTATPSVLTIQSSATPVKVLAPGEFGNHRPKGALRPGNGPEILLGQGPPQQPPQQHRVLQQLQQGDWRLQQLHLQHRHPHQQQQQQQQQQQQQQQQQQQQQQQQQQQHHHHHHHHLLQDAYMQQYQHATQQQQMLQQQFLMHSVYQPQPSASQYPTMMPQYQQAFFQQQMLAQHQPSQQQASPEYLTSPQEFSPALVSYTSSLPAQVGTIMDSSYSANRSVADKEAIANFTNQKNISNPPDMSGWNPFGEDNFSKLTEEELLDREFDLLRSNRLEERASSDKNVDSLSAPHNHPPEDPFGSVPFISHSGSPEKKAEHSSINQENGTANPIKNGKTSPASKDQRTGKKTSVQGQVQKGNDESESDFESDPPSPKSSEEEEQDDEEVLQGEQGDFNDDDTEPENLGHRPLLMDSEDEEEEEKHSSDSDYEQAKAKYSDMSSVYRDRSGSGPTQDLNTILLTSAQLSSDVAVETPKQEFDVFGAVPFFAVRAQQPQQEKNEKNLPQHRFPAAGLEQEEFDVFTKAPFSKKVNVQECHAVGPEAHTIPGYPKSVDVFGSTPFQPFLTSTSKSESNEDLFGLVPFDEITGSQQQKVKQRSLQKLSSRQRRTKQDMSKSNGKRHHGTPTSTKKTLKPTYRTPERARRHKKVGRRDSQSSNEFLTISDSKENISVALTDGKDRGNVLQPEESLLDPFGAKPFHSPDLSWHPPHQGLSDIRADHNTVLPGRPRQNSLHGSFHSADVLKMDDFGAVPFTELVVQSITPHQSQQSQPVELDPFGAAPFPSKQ
The nature of data set [1]: alamarBlue viability, infected Vero E6 cells. Type of data set: cell-based. Particulars: African green monkey, 24 hpi. For orientation: The colour change of resazurin is a common sign of viable cells or microbes.
Data set [2] is described as follows: alamarBlue viability, infected Calu-3 cells. Type of data set: cell-based. The conditions noted are these: human.
The test system of the next data set is RIPK2. The conditions noted are these: ref Asquith et al., 2019a, 2019b; cited from earlier work.
The subject of the next data set is ADCK3. Particulars: ref Asquith et al., 2019a, 2019b; cited from earlier work.
In the next data set the test system is NLK. The conditions noted are these: ref Asquith et al., 2019a, 2019b; cited from earlier work.
Another data set deals with PDGFRβ. The conditions noted are these: ref Davis et al.,2011; cited from earlier work.

Usually EC50 stands for the concentration at which the effect is half-maximal. Broadly, the Kd is the equilibrium constant for the complex coming apart. Lower therefore signals higher affinity. A word on the CC50: it is the concentration that lowers cell viability or growth by half. Low values mean greater toxicity to the cells, high ones lower toxicity to the cells.

Consider `CCS(=O)(=O)N1CC(CC#N)(n2cc(-c3ncnc4[nH]ccc34)cn2)C1` [Baricitinib, baricitinib], for which the “antiviral activity in Calu-3 cells” value in the data set with rSARS-CoV-2/Nluc is “largely no antiviral activity”. Besides, the “JAK2 (Other targets, measure not stated)” value with JAK2 is on record as 5.7 nM. Also, the “TYK2 (Other targets, measure not stated)” value in the data set on TYK2 was 53 nM.
As to `C#Cc1cccc(Nc2ncnc3cc(OCCOC)c(OCCOC)cc23)c1` [Erlotinib, erlotinib], in the data set on rSARS-CoV-2/Nluc, the EC50 is greater than 20 µM. In addition, the “ErbB1 (Other targets, measure not stated)” value in the data set on EGFR is recorded as 0.7 nM. Besides, the “STK10 (Other targets, measure not stated)” value with STK10 was 19 nM. Further, the “YSK4 (Other targets, measure not stated)” value in the data set with YSK4 is 25 nM. Also, the “SLK (Other targets, measure not stated)” value in the data set on SLK is given as 26 nM.
With `C=CC(=O)Nc1cccc(-c2snc3cc(-c4ccc(N)c(OC)c4)cnc23)c1` [RMC-242, N-(3-(6-(4-amino-3-methoxyphenyl)isothiazolo [4,3-b]pyridin-3-yl)phenyl) acrylamide], the results for the Kd at AAK1 and at BIKE were 4.1 µM and greater than 15 µM, respectively. The EC50 in the data set with rSARS-CoV-2/Nluc worked out at 1.6 µM. The CC50 at 24 h post infection in data set [1] was 16 µM; in data set [2], greater than 20 µM.
Take `COc1cc(Nc2ccnc3ccc(Br)cc23)cc(OC)c1OC` [SGC-GAK-1]: in the data set on rSARS-CoV-2/Nluc, the EC50 was determined as 2.3 µM. The CC50 at 24 h post infection in data set [1] and in data set [2] was greater than 20 µM each time. Moreover, in the data set with RIPK2, the “RIPK2 (Other targets, measure not stated)” value was 110 nM. The “ADCK3 (Other targets, measure not stated)” value in the data set with ADCK3 is 190 nM. Further, the “NLK (Other targets, measure not stated)” value in the data set on NLK is reported as 520 nM.
Consider `CCN(CC)CCNC(=O)c1c(C)[nH]c(/C=C2\C(=O)Nc3ccc(F)cc32)c1C` [Sunitinib, sunitinib], for which the EC50 in the data set on rSARS-CoV-2/Nluc amounted to 2.9 µM. Moreover, the CC50 at 24 h post infection in data set [1] is 12.2 µM; in data set [2], greater than 20 µM. The “PDGFRβ (Other targets, measure not stated)” value in the data set on PDGFRβ is reported as 2 nM.
